In US20050181516A1, “Bioequivalence determination using expression profiling” (priority 2002, published 2005):

Legend:
[1] = system: atopic dermatitis or psoriasis; conditions: topical formulation; cited from earlier work
[2] = system: contact dermatitis; conditions: topical application and oral route; cited from earlier work
[3] = molecular target: macrophilin FKBP12 (Homo sapiens, UniProt P62942); conditions: relative to FK506; cited from earlier work
[4] = system: psoriasis; experiment: 4 weeks clinical study of oral ASM981 in psoriatic patients; type: in vivo, human; conditions: 8 ASM981-treated patients, oral 60 mg/day (30 mg b.i.d.)
Method: A clinical study was initiated with a standardized oral formulation of ASM981 (pimecrolimus) to treat psoriatic patients. The purpose of this study was both to investigate the nature of the alteration in gene expression profiles caused by the administration of a standardised oral formulation of pimecrolimus and to produce the necessary data to allow the bioequivalence of other pharmaceutically equivalent oral formulations of pimecrolimus to be tested. The dose used was 60 mg/day, given as 30 mg twice a day (b.i.d.). To make this dose the […] tablets were cut in half using a special cutter (Tablettenteiler NR.96) so as to obtain 30 mg of ASM981 or a matched amount of placebo. ASM981 was evaluated as treatment for psoriasis using an oral dose of 60 mg (30 mg b.i.d) during a 4 weeks clinical study. The oral formulation used was a highly standardized oral dosage form that could be produced in large amounts and with a highly uniform composition, this was oral formulation A. The cohort included 10 patients; 8 received oral formulation A and 2 received a placebo. Blood samples were collected before the first administration to establish the gene expression baseline and on days 13 or 14 after treatment with ASM981 or placebo and submitted to gene expression analysis in order to gain insights into the mechanisms of action of the compound.

Sequence of macrophilin FKBP12 (P62942 whole entry): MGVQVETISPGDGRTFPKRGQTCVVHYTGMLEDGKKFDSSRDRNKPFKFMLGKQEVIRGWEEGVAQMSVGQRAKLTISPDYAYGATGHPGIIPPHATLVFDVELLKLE

CC[C@@H]1/C=C(\C)C[C@H](C)C[C@H](OC)[C@H]2O[C@@](O)(C(=O)C(=O)N3CCCC[C@H]3C(=O)O[C@H](/C(C)=C/[C@@H]3CC[C@H](Cl)[C@H](OC)C3)[C@H](C)[C@@H](O)CC1=O)[C@H](C)C[C@@H]2OC [ASM981, 33-Epichloro-33-desoxy-ascomycin]
outcome of clinical trials in atopic dermatitis or psoriasis [1]: clinical regression
efficacy in animal models of contact dermatitis [2]: effective
affinity for macrophilin FKBP12, fold lower than FK506 [3]: 3 fold
psoriasis (clinical data) [4]: reduction of psoriasis
